Where a SMILES comes first, the peptide text is derived from it. Bridges are numbered along the chain shown (N, C = ends). Side-chain parts run from the residue outwards. [ ]: non-standard residue; d: D form. The star is where a group is joined. X1 = O=C(O)CN1CCN(CC(=O)O)CCN(CC(=O)N[C@@H](CS(=O)(=O)O)C(=O)N[C@@H](CCCCNC(=O)CCCc2ccc(I)cc2)C(=O)*)CCN(CC(=O)O)CC1; DOTA = O=C(O)CN1CCN(CC(=O)O)CCN(CC(=O)*)CCN(CC(=O)O)CC1; NMeLys(iPr) = CN[C@@H](CCCCNC(C)C)C(=O)O; 2Nal = N[C@@H](Cc1ccc2ccccc2c1)C(=O)O; Lys(iPr) = CC(C)NCCCC[C@H](N)C(=O)O; Cya = N[C@@H](CS(=O)(=O)O)C(=O)O
Experiment: in vivo
Design: species or system mice
Conditions: male, mouse, iv, total radioactivity
Experimental: The Z138 Mantle cell lymphoma cell line was purchased from the American Type Culture Collection (ATCC©CRL-3001). The cell line was cultured in a 5% CO2 atmosphere at 37° C. in a humidified incubator with IMDM medium supplemented with 10% fetal bovine serum, 100 I.U./mL penicillin, and 100 μg/mL streptomycin.
[^68Ga]GaCl3 was eluted from an iThemba Labs generator with a total of 4 mL of 0.1 M HCl. The eluted [^68Ga]GaCl3 solution was added to 2 mL of concentrated HCl. This radioactive mixture was then added to a DGA resin column and washed with 3 mL of 5 M HCl. The column was then dried with air and the [^68Ga]GaCl3 (0.10-0.50 GBq) was eluted with 0.5 mL of water into a vial containing a solution of the unlabeled precursor (25 μg) in 0.7 mL HEPES buffer (2 M, pH 5.3). The reaction mixture was heated in a microwave oven (Danby; DMW7700WDB) for 1 min at power setting 2. The mixture was purified by semi-prep HPLC and quality control was performed via analytical HPLC with the co-injection of the unlabeled standard with a one-twelfth of the radiotracer. Radiochemical yields (decay-corrected) were >50% and radiochemical purities were >95%.
Animal experiments were performed in accordance with guidelines established by the Canadian Council on Animal Care, under a research protocol approved by the Animal Ethics Committee of the University of British Columbia. For all studies, male NOD.Cg-Rag1tm1Momll2rgtm1Wjl/SzJ (NRG) mice were used and cells injected in a 100 μL solution of 1:1 ratio of PBS/Matrigel. For preclinical imaging and biodistribution studies, 5×10^6 cells of Z138, cells were subcutaneously inoculated on the left or right flank and tumors were grown to a size of 200-300 mm^3. […]
Under isoflurane anesthesia (2-2.5% isoflurane in 2 L/min 02), mice were injected intravenously with [^68Ga]Ga-BL34L6 or [^68Ga]Ga-BL34L7. Mice were euthanized by CO2 inhalation after anesthesia with isoflurane. Tissues were harvested, washed in PBS, patted dry, weighed, and then assayed radioactivity on a gamma counter. Counted radioactivities were converted to percentage injected dose per gram of tissue (% ID/g) using a calibration curve.

[1] = NOD.Cg-Rag1tm1Mom Il2rgtm1Wjl/SzJ (NRG), Biodistribution: Adrenals
[2] = NOD.Cg-Rag1tm1Mom Il2rgtm1Wjl/SzJ (NRG), Biodistribution: Bone
[3] = NOD.Cg-Rag1tm1Mom Il2rgtm1Wjl/SzJ (NRG), Biodistribution: Brain
[4] = NOD.Cg-Rag1tm1Mom Il2rgtm1Wjl/SzJ (NRG), Biodistribution: Heart
[5] = NOD.Cg-Rag1tm1Mom Il2rgtm1Wjl/SzJ (NRG), Biodistribution: Kidneys
[6] = NOD.Cg-Rag1tm1Mom Il2rgtm1Wjl/SzJ (NRG), Biodistribution: Liver
[7] = NOD.Cg-Rag1tm1Mom Il2rgtm1Wjl/SzJ (NRG), Biodistribution: Lungs
[8] = NOD.Cg-Rag1tm1Mom Il2rgtm1Wjl/SzJ (NRG), Biodistribution: Muscle
[9] = NOD.Cg-Rag1tm1Mom Il2rgtm1Wjl/SzJ (NRG), Biodistribution: Pancreas
[10] = NOD.Cg-Rag1tm1Mom Il2rgtm1Wjl/SzJ (NRG), Biodistribution: Small Intestine
[11] = NOD.Cg-Rag1tm1Mom Il2rgtm1Wjl/SzJ (NRG), Biodistribution: Spleen
[12] = NOD.Cg-Rag1tm1Mom Il2rgtm1Wjl/SzJ (NRG), Biodistribution: Z138 Tumor
[13] = NOD.Cg-Rag1tm1Mom Il2rgtm1Wjl/SzJ (NRG), Ratio Tumor-to-Blood
[14] = NOD.Cg-Rag1tm1Mom Il2rgtm1Wjl/SzJ (NRG), Ratio Tumor-to-Muscle
[15] = NOD.Cg-Rag1tm1Momll2rgtm1Wjl/SzJ (NRG), Biodistribution: Blood
[16] = NOD.Cg-Rag1tm1Momll2rgtm1Wjl/SzJ (NRG), Biodistribution: Stomach
[17] = NOD.Cg-Rag1tm1Momll2rgtm1Wjl/SzJ (NRG), Biodistribution: Testes
[18] = NOD.Cg-Rag1tm1Momll2rgtm1Wjl/SzJ (NRG), Ratio Tumor-to-Bone
[19] = NOD.Cg-Rag1tm1Momll2rgtm1Wjl/SzJ (NRG), Ratio Tumor-to-Kidney
[20] = NOD.Cg-Rag1tm1Momll2rgtm1Wjl/SzJ (NRG), Ratio Tumor-to-Muscle
[21] = NOD.Cg-Rag1tm1Momll2rgtm1Wjl/SzJ (NRG), Ratio Tumor-to-Pancreas

CC(C)NCCCC[C@H](NC(=O)[C@H]1CCC(=O)N[C@@H](CCCCNC(=O)[C@H](CS(=O)(=O)O)NC(=O)CN2CCN(CC(=O)O)CCN(CC(=O)O)CCN(CC(=O)O)CC2)C(=O)N[C@@H](Cc2ccc(O)cc2)C(=O)N(C)[C@@H](CCCCNC(C)C)C(=O)N[C@H](CCCNC(=N)N)C(=O)N[C@@H](Cc2ccc3ccccc3c2)C(=O)N[C@H](C)C(=O)N1)C(N)=O [[^68Ga]Ga-BL34N1, metal not drawn] (K([Cya-DOTA])Y[NMeLys(iPr)][dR][2Nal][dA][dE][Lys(iPr)]-NH2; lactam N-7)
tissue uptake at 1 h [1]: 0.17 %ID/g
tissue uptake at 1 h (NOD.Cg-Rag1tm1Mom Il2rgtm1Wjl/SzJ (NRG), Biodistribution: Blood): 0.32 %ID/g
tissue uptake at 1 h [2]: 0.13 %ID/g
tissue uptake at 1 h [3]: 0.02 %ID/g
tissue uptake at 1 h [4]: 0.12 %ID/g
tissue uptake at 1 h [5]: 2.7 %ID/g
tissue uptake at 1 h [6]: 0.71 %ID/g
tissue uptake at 1 h [7]: 0.44 %ID/g
tissue uptake at 1 h [8]: 0.09 %ID/g
tissue uptake at 1 h [9]: 0.08 %ID/g
tissue uptake at 1 h [10]: 0.19 %ID/g
tissue uptake at 1 h [11]: 0.26 %ID/g
tissue uptake at 1 h (NOD.Cg-Rag1tm1Mom Il2rgtm1Wjl/SzJ (NRG), Biodistribution: Stomach): 0.05 %ID/g
tissue uptake at 1 h (NOD.Cg-Rag1tm1Mom Il2rgtm1Wjl/SzJ (NRG), Biodistribution: Testes): 0.18 %ID/g
tissue uptake at 1 h [12]: 12 %ID/g
tissue to tissue ratio at 1 h [13]: 37.7
tissue to tissue ratio at 1 h (NOD.Cg-Rag1tm1Mom Il2rgtm1Wjl/SzJ (NRG), Ratio Tumor-to-Bone): 92.2
tissue to tissue ratio at 1 h (NOD.Cg-Rag1tm1Mom Il2rgtm1Wjl/SzJ (NRG), Ratio Tumor-to-Kidney): 4.6
tissue to tissue ratio at 1 h [14]: 157
tissue to tissue ratio at 1 h (NOD.Cg-Rag1tm1Mom Il2rgtm1Wjl/SzJ (NRG), Ratio Tumor-to-Pancreas): 146

CC(C)NCCCC[C@H](NC(=O)[C@H]1CCC(=O)N[C@@H](CCCCNC(=O)[C@H](CCCCNC(=O)CCCc2ccc(I)cc2)NC(=O)[C@H](CS(=O)(=O)O)NC(=O)CN2CCN(CC(=O)O)CCN(CC(=O)O)CCN(CC(=O)O)CC2)C(=O)N[C@@H](Cc2ccc(O)cc2)C(=O)N[C@@H](CCCCNC(C)C)C(=O)N[C@H](CCCNC(=N)N)C(=O)N[C@@H](Cc2ccc3ccccc3c2)C(=O)N[C@H](C)C(=O)N1)C(N)=O [[^177Lu]Lu-BL34L11, metal not drawn] (K(X1)Y[Lys(iPr)][dR][2Nal][dA][dE][Lys(iPr)]-NH2; lactam N-7)
tissue uptake at 24 h [1]: 2.44 %ID/g
tissue uptake at 72 h [1]: 1.8 %ID/g
tissue uptake at 120 h [1]: 1.62 %ID/g
tissue uptake at 24 h [2]: 0.71 %ID/g
tissue uptake at 72 h [2]: 0.42 %ID/g
tissue uptake at 120 h [2]: 0.29 %ID/g
tissue uptake at 24 h [3]: 0.18 %ID/g
tissue uptake at 72 h [3]: 0.07 %ID/g
tissue uptake at 120 h [3]: 0.05 %ID/g
tissue uptake at 24 h [4]: 1.8 %ID/g
tissue uptake at 72 h [4]: 1.1 %ID/g
tissue uptake at 120 h [4]: 0.76 %ID/g
tissue uptake at 24 h [5]: 2.67 %ID/g
tissue uptake at 72 h [5]: 1.19 %ID/g
tissue uptake at 120 h [5]: 0.75 %ID/g
tissue uptake at 24 h [6]: 1.99 %ID/g
tissue uptake at 72 h [6]: 1.1 %ID/g
tissue uptake at 120 h [6]: 0.45 %ID/g
tissue uptake at 24 h [7]: 4.88 %ID/g
tissue uptake at 72 h [7]: 2.86 %ID/g
tissue uptake at 120 h [7]: 1.91 %ID/g
tissue uptake at 24 h [8]: 0.76 %ID/g
tissue uptake at 72 h [8]: 0.38 %ID/g
tissue uptake at 120 h [8]: 0.21 %ID/g
tissue uptake at 24 h [9]: 1.05 %ID/g
tissue uptake at 72 h [9]: 0.45 %ID/g
tissue uptake at 120 h [9]: 0.53 %ID/g
tissue uptake at 24 h [10]: 0.79 %ID/g
tissue uptake at 72 h [10]: 0.38 %ID/g
tissue uptake at 120 h [10]: 0.21 %ID/g
tissue uptake at 24 h [11]: 2.13 %ID/g
tissue uptake at 72 h [11]: 1.96 %ID/g
tissue uptake at 120 h [11]: 1.86 %ID/g
tissue uptake at 24 h [12]: 26.6 %ID/g
tissue uptake at 72 h [12]: 35 %ID/g
tissue uptake at 120 h [12]: 41.2 %ID/g
tissue to tissue ratio at 24 h [13]: 3.42
tissue to tissue ratio at 72 h [13]: 12.3
tissue to tissue ratio at 120 h [13]: 25
tissue to tissue ratio at 72 h [14]: 91.8
tissue uptake at 24 h [15]: 7.82 %ID/g
tissue uptake at 72 h [15]: 2.84 %ID/g
tissue uptake at 120 h [15]: 1.6 %ID/g
tissue uptake at 24 h [16]: 0.75 %ID/g
tissue uptake at 72 h [16]: 0.32 %ID/g
tissue uptake at 120 h [16]: 0.24 %ID/g
tissue uptake at 24 h [17]: 2.64 %ID/g
tissue uptake at 72 h [17]: 1.47 %ID/g
tissue uptake at 120 h [17]: 2.04 %ID/g
tissue to tissue ratio at 24 h [18]: 28.3
tissue to tissue ratio at 72 h [18]: 53.7
tissue to tissue ratio at 120 h [18]: 55.9
tissue to tissue ratio at 24 h [19]: 10.1
tissue to tissue ratio at 72 h [19]: 29.3
tissue to tissue ratio at 120 h [19]: 54.2
tissue to tissue ratio at 24 h [20]: 35.8
tissue to tissue ratio at 120 h [20]: 190
tissue to tissue ratio at 24 h [21]: 25.9
tissue to tissue ratio at 72 h [21]: 71.7
tissue to tissue ratio at 120 h [21]: 122
